In general, IC50 refers to the concentration at which inhibition is half-maximal. One may read the Km as the substrate concentration at which the rate is half of its maximum.

This is an account of results in patent US6416991B1, “Human cyclic nucleotide PDES” (Incyte Genomics, Inc., priority 1999, dated 2002).

Assay [1] relates to PDEs (non-selective). To be noted: range observed for other PDEs; read-out: Selective for PDE type (IC50): non-selective; cited from earlier work.
Assay [2] addresses T1, HSPDE10A1 (Homo sapiens, UniProt Q9HCR9). Description: Inhibition of HSPDE10A1 PDE activity, scintillation proximity assay with cGMP as substrate. On the technique in general: In a scintillation proximity assay essentially only radioactivity close to the scintillant gives light.
For assay [3], the system named is PDE3. To be noted: read-out: Selective for PDE type (IC50): PDE3; cited from earlier work.
For assay [4], the system named is PDE4. To be noted: read-out: Selective for PDE type (IC50): PDE4; cited from earlier work.
Assay [5] addresses T1, HSPDE10A1. Description: HSPDE10A1 enzyme kinetics (Km, Vmax) with cAMP and cGMP as substrates. To be noted: substrate 0.15-10 μM, Michaelis-Menten plot.

Some results are limits rather than exact numbers.

T1 sequence (Q9HCR9 445-933): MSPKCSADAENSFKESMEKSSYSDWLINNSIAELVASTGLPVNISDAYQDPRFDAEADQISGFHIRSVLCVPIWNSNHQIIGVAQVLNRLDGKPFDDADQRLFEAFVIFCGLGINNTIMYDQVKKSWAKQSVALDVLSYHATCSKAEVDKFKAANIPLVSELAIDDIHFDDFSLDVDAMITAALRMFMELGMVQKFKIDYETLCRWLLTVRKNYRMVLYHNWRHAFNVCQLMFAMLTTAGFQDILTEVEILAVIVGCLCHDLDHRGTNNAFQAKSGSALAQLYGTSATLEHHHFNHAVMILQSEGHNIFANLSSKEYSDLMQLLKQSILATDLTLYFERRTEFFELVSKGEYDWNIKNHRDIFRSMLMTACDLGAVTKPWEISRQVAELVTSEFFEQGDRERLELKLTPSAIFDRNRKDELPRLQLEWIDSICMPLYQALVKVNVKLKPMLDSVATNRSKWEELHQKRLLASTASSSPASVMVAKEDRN

On to `CC(C)Cn1c(=O)n(C)c(=O)c2[nH]cnc21` [IBMX, 3-isobutyl1-methylxanthine], for which the IC50 was 2 to 50 µM in assay [1] and 40 µM in assay [2].

`Cc1[nH]c(=O)c(C#N)cc1-c1ccncc1` [Milrinone]: the IC50 in assay [3] is 1 µM; in assay [2] it was over 200 µM.

With `COc1ccc(C2CNC(=O)C2)cc1OC1CCCC1` (centres unmarked) [Rolipram], the IC50 in assay [4] was […]; in assay [2] it was 160 µM.

Consider `Nc1nc2c(ncn2[C@@H]2O[C@@H]3COP(=O)(O)O[C@H]3[C@H]2O)c(=O)[nH]1` [cGMP], for which the Michaelis-Menten constant (Km) in assay [5] (read-out: Km for HSPDE10A1) came to 0.52 µM. In addition, the “Vmax (rate of hydrolysis by HSPDE10A1)” value in assay [5] was determined as 0.21 μmole/min/ml enzyme.
